Results published in publication PMC2726290, “Decoding of Methylated Histone H3 Tail by the Pygo-BCL9 Wnt Signaling Complex” (Molecular Cell, 2008).
Read-outs that look alike come from different tables or passages of the source. Blank lines part the entries; values can stand above or below the molecule they belong to.

Legend:
[1] = target: T1, dPHD-HD1 complex (Drosophila Pygo PHD with Lgs HD1) (Drosophila melanogaster, UniProt Q961D9+Q9V9W8); assay: ITC, histone tail peptides with Drosophila PHD-HD1 complex; type: binding
T1 construct: Drosophila Pygo PHD (amino acids 747–808); GST (N, cleaved yes); made in house; host or cells: E. coli BL21-CodonPlus(DE3)-RIL
T1 sequence (Q9V9W8 747-808): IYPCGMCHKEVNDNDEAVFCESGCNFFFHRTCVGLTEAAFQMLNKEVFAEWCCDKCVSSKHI
T1 sequence (Q961D9 316-350 partner limits assumed): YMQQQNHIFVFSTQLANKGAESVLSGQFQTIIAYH
Method: (§1) ITC was carried out using a VP-ITC Microcal calorimeter (Microcal, Northhampton, MA, USA). Peptides were lyophilized against freshly prepared 20mM ammonium bicarbonate solution and resuspended in the ITC dialysis buffer (25mM Tris pH 8.0, 100mM NaCl and 2mM β-mercaptoethanol). Experiments were performed at 25 °C. During titration, 4-12µl aliquots of 0.5-1.0mM peptide solution was injected into a solution of 50µM protein at time intervals of 5 min. ITC data were corrected for the heat of dilution and analyzed using Origin (version 5.0) provided by the manufacturer. […]

[2] = target: T2, hPHD-HD1 complex (hPygo1 PHD with hBCL9 HD1) (Homo sapiens, UniProt O00512+Q9Y3Y4); assay: ITC, histone tail peptides with human PHD-HD1 complex; type: binding; conditions: ITC at 25 °C
T2 construct: hPygo1 PHD (amino acids 333–402); GST (N, cleaved yes); made in house; host or cells: E. coli BL21-CodonPlus(DE3)-RIL
T2 sequence (Q9Y3Y4 333-402): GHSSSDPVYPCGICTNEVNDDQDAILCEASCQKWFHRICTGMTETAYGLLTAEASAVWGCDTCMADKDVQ
T2 sequence (O00512 177-205 partner limits assumed): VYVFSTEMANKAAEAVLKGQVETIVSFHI
Method: as §1

[3] = target: T3, PHD finger from hPygo1 (hPHD) (Homo sapiens, UniProt Q9Y3Y4); assay: ITC, histone tail peptides with free hPHD; type: binding; conditions: 15-mer peptides, ITC at 25 °C, pH 8.0
T3 construct: hPygo1 PHD (amino acids 333–402); GST (N, cleaved yes); made in house; host or cells: E. coli BL21-CodonPlus(DE3)-RIL
T3 sequence (Q9Y3Y4 333-402): T2 sequence (Q9Y3Y4 333-402)
Method: Free PHD fingers were purified similarly to the PHD-HD1 complexes, and purity was assessed by SDS-PAGE prior to use for ITC.
as §1

[4] = tested on: PHD from hPygo1 (GST-hPHD); assay: In vitro pull-down, MBP-tagged HD1 deletions with GST-hPHD; type: binding, human; conditions: systematic N- and C-terminal deletions of HD1, MBP-tagged
Method: Figure S2. Deletion Analysis of hBCL9 HD1 and Binding to hPygo1 PHD
(A) Systematic N- and C-terminal deletions of HD1 from hBCL9 (underlined), individually and combined (bottom); sequences between, and including, red (marking deletion end-points) were tested for their in vitro binding to PHD from hPygo1 (B), as summarized on […]
(B) In vitro pull-down assays, to test binding between MBP-tagged HD1 deletions and GST-hPHD; positive controls, Lgs HD1, hBCL9 AKV-TER; negative controls, GST, MBP-ACTN2; IP, input (5%); G, GST; PHD, GST-hPHD. […]

Molecule: C[C@H](N)C(=O)N[C@@H](CCCNC(=N)N)C(=O)N[C@H](C(=O)N[C@@H](CCCC[N+](C)(C)C)C(=O)N[C@@H](CCC(N)=O)C(=O)N[C@H](C(=O)N[C@@H](C)C(=O)N[C@@H](CCCNC(=N)N)C(=O)N[C@@H](CCCCN)C(=O)N[C@@H](CO)C(=O)N[C@H](C(=O)NCC(=O)NCC(=O)N[C@@H](CCCCN)C(=O)N[C@@H](C)C(=O)O)[C@@H](C)O)[C@@H](C)O)[C@@H](C)O [15-mer H3K4me3]
Kd [1]: 23 µM

Kd ([1]; Figure 3A panel, dPHD-HD1, 15-mer peptide, ITC at 25 °C, 100 mM NaCl, 25 mM Tris-HCl pH 8.0, 10 μM ZnCl2, 2 mM β-mercaptoethanol, 50µM protein, 0.5-1.0mM peptide, one-site model, ± fitting error, read-out: Kd): 12.6 ± 0.5 µM | Kd ([2]; Figure 3A panel, hPHD-HD1, 15-mer peptides, 100 mM NaCl, 25 mM Tris-HCl pH 8.0, 10 μM ZnCl2, 2 mM β-mercaptoethanol, 50µM protein, 0.5-1.0mM peptide, one-site model, ± fitting error, read-out: Kd): 0.93 ± 0.01 µM | Kd [3]: 2.4 µM
Molecule: C[C@H](N)C(=O)N[C@@H](CCCNC(=N)N)C(=O)N[C@H](C(=O)N[C@@H](CCCCN(C)C)C(=O)N[C@@H](CCC(N)=O)C(=O)N[C@H](C(=O)N[C@@H](C)C(=O)N[C@@H](CCCNC(=N)N)C(=O)N[C@@H](CCCCN)C(=O)N[C@@H](CO)C(=O)N[C@H](C(=O)NCC(=O)NCC(=O)N[C@@H](CCCCN)C(=O)N[C@@H](C)C(=O)O)[C@@H](C)O)[C@@H](C)O)[C@@H](C)O [15-mer H3K4me2]

binding (in words) ([2]; human PHD-HD1 complex, pH 8.0): reduced to almost background levels
Molecule: 9-mer H3K4me2 A1>G: 9-mer whose A1 was substituted with a glycine (A1 > G) (GRTKQTARK; dimethyl-lysine at K4)

Kd ([2]; Figure 3B, hPHD-HD1, pH 8.0, 100 mM NaCl, 25 mM Tris-HCl, 10 μM ZnCl2, 2 mM β-mercaptoethanol, 50µM protein, 0.5-1.0mM peptide, one-site model, ± fitting error, read-out: Binding constant (Kd)): 11.4 ± 1.1 µM
Molecule: C[C@H](N)C(=O)N[C@@H](CCCNC(=N)N)C(=O)N[C@H](C(=O)N[C@@H](CCCCN(C)C)C(=O)N[C@@H](CCC(N)=O)C(=O)N[C@H](C(=O)N[C@@H](C)C(=O)N[C@@H](CCCNC(=N)N)C(=O)N[C@@H](CCCCN)C(=O)O)[C@@H](C)O)[C@@H](C)O [9-mer H3K4me2]

Molecule: V177-I205: minimal PHD-interacting fragment of HD1 from hBCL9 (VYVFSTEMANKAAEAVLKGQVETIVSFHI; HD1; UniProt O00512 177-205, looked up, fragment)
PHD binding of HD1 fragment (in words) [4]: minimal PHD-interacting fragment

binding (in words) ([2]; human PHD-HD1 complex, pH 8.0): No binding was detectable
Molecule: 9-mer H3K4me2 ΔA1: truncated H3K4me2 peptide spanning R2-K9 (without A1, ΔA1) (RTKQTARK; dimethyl-lysine at K4)

Kd ([1]; Figure 3B, dPHD-HD1, ITC at 25 °C, pH 8.0, 100 mM NaCl, 25 mM Tris-HCl, 10 μM ZnCl2, 2 mM β-mercaptoethanol, 50µM protein, 0.5-1.0mM peptide, one-site model, ± fitting error, read-out: Binding constant (Kd)): 21.5 ± 0.3 µM | Kd ([2]; human PHD-HD1 complex, pH 8.0, read-out: Kd): 2.9 µM | Kd [3]: 9 µM
Molecule: CNCCCC[C@H](NC(=O)[C@@H](NC(=O)[C@H](CCCNC(=N)N)NC(=O)[C@H](C)N)[C@@H](C)O)C(=O)N[C@@H](CCC(N)=O)C(=O)N[C@H](C(=O)N[C@@H](C)C(=O)N[C@@H](CCCNC(=N)N)C(=O)N[C@@H](CCCCN)C(=O)N[C@@H](CO)C(=O)N[C@H](C(=O)NCC(=O)NCC(=O)N[C@@H](CCCCN)C(=O)N[C@@H](C)C(=O)O)[C@@H](C)O)[C@@H](C)O [15-mer H3K4me1]
